From patent US10981911B2, “Imidazopyrrolopyridine as inhibitors of the JAK family of kinases” (Janssen Pharmaceutica NV, priority 2016, dated 2021)

How the values were obtained:
Assay type in all cases: biochemical
JAK1-JH1JH2 = JAK1-JH1JH2 (Homo sapiens (Human), UniProt P23458); experiment: Enzymatic inhibition assay (RapidFire HTMS), JAK1; conditions: 12.5 μM ATP, 200 μM substrate; read-out: JAK1-JH2JH1 IC50
Description: (§1) LC/MS grade Water and Acetonitrile (ACN), were purchased from HoneyWell, Burdick & Jackson (Muskegon, Mich., USA). Dimethylsulfoxide 99.8% (DMSO) and Trifluoroacetic Acid 99.5% (TFA) were purchased from EMD Chemical (Gibbstown, N.J., USA). Adenosine triphosphate (ATP), 4-Morpholinepropanesulfonic acid (MOPS), Magnesium chloride (MgCl2), ethylenediaminetetraacetic acid (EDTA), dithiothreitol (DTT), formic acid >95% (FA) and Tween-20 were purchased from Sigma (St Louis, Mo., USA). 384-well polypropylene plates, Cat #781280 were purchased from Greiner (Monroe, N.C.), RapidFire™ cartridge A C4 Column (Agilent Technologies, Santa Clara, Calif.).
(§2) The HTMS experiments were performed in positive ionization mode on a RapidFire 300 instrument (Agilent Technologies, Santa Clara, Calif.), coupled with an ABSiex QTrap 4000 system with an Electrospray Ionization source (RF-MS) (Concord, ON, Canada). […] The entire system was operated using the RapidFire software interfaced with Analyst software for the mass spectrometer.
(§3) 11-point dosing series were made for each compound by serially diluting 1:3 or 1:4 in DMSO, with point 12 being a DMSO control. From the serial dilution plates, sample was transferred to a 384 wells assay plate (#781280, Greiner, Monroe, N.C.) using Labcyte Echo (Sunnyvale, Calif.), or Biosero ATS (San Diego, Calif.). The compounds were tested in duplicate. Column 12 was used for positive controls, and column 24 contained negative controls with no enzyme added. A compound from our internal collection, with inhibitory activity for JAK isoforms, was used as a reference compound. The final concentration of DMSO was ≤0.25% in a 20 μL reaction. […] The Tyk2 enzyme was pre-incubated with 2 mM ATP for 30 min prior to the reaction initiation. Immediately after the addition of the enzyme to the reaction mixture, the plate was centrifuged at 1000 rpm for 1 minute and incubated at 25° C. for 45 minutes for JAK 3 and 90 minutes for JAK1, JAK2 and Tyk2. The reaction was quenched by the addition of 20 μL of 0.5% TFA containing 0.15 μM of internal standard peptide using Multidrop Combi reagent dispenser (Thermo Scientific, Waltham, Mass.). […] After the quench, the assay plate was centrifuged at 3000 rpm for 3 minutes and sealed with pierceable aluminum foil (Cat #06644-001, Agilent) using a PlateLoc (Agilent Technologies, Santa Clara, Calif.). The plates then were transferred on to the RapidFire for the MS analysis. Compound inhibition was assessed by a decrease of the phosphorylated product levels in sample wells compared to the non-inhibited enzyme reaction.
(§4) The sample analysis on the RapidFire was performed using a mobile phase A consisting of Water/TFA/FA (100:0.01:0.1, v/v/v), a mobile phase B consisting of ACN/Water/TFA/FA (80:20:0.01:0.1, v/v/v). […] The samples were aspirated directly from the 384 assay plate and delivered onto RF-MS microscale solid-phase C4 extraction cartridge (Type A). The undesired component such as salt, cofactor, detergent and large protein were washed out and the retained analytes (substrate, product and IS) were coeluted directly onto the ABSiex Qtrap 4000 system.

JAK2-JH1JH2 = JAK2-JH1JH2 (Homo sapiens (Human), UniProt O60674); experiment: Enzymatic inhibition assay (RapidFire HTMS), JAK2; conditions: 30 μM ATP, 40 μM substrate
JAK2-JH1JH2, sequence (O60674 532-1132): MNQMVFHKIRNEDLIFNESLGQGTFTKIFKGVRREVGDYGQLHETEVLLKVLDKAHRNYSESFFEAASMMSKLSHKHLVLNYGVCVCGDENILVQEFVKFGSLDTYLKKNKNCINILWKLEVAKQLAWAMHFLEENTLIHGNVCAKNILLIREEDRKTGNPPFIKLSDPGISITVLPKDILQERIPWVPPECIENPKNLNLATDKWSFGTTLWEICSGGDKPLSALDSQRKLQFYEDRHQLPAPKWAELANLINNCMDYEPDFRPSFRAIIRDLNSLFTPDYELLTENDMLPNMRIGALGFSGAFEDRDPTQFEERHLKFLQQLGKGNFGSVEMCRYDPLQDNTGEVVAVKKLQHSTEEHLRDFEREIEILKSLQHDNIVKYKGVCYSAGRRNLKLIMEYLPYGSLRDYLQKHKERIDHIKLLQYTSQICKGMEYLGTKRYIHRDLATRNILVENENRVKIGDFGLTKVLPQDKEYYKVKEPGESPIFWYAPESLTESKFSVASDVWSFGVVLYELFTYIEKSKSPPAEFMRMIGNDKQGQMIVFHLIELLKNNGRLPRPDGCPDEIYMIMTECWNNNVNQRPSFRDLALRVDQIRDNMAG
Description: as §1, §2, §3, §4

JAK3-JH1JH2 = JAK3-JH1JH2 (Homo sapiens (Human), UniProt P52333); experiment: Enzymatic inhibition assay (RapidFire HTMS), JAK3; conditions: 150 μM ATP, 40 μM substrate
JAK3-JH1JH2, sequence (P52333 512-1124): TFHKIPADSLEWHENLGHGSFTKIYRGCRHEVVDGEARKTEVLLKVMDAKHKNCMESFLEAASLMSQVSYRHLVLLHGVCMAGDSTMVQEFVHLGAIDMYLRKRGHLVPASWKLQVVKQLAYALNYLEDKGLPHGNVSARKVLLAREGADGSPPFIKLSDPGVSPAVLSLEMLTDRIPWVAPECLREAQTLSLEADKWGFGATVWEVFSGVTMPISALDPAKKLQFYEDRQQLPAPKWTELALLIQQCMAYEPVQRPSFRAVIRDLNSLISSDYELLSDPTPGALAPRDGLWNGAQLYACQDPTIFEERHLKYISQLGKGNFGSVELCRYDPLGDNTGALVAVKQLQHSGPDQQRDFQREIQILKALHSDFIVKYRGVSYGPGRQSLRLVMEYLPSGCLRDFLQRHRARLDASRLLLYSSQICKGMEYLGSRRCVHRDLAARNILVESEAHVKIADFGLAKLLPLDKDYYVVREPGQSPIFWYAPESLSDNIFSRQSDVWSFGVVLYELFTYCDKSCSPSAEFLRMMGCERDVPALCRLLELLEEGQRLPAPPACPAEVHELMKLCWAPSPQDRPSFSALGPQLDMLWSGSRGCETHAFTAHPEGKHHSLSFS
Description: as §1, §2
as §3, with “compound.” for “compound. The final concentration of DMSO was ≤0.25% in a 20 μL reaction.”
as §4

Tyk2-JH1JH2 = Tyk2-JH1JH2 (Homo sapiens (Human), UniProt P29597, C1142A/C936A); experiment: Enzymatic inhibition assay (RapidFire HTMS), Tyk2; conditions: 50 μM ATP, 200 μM substrate
Tyk2-JH1JH2, sequence (P29597 580-1182 C936A/C1142A): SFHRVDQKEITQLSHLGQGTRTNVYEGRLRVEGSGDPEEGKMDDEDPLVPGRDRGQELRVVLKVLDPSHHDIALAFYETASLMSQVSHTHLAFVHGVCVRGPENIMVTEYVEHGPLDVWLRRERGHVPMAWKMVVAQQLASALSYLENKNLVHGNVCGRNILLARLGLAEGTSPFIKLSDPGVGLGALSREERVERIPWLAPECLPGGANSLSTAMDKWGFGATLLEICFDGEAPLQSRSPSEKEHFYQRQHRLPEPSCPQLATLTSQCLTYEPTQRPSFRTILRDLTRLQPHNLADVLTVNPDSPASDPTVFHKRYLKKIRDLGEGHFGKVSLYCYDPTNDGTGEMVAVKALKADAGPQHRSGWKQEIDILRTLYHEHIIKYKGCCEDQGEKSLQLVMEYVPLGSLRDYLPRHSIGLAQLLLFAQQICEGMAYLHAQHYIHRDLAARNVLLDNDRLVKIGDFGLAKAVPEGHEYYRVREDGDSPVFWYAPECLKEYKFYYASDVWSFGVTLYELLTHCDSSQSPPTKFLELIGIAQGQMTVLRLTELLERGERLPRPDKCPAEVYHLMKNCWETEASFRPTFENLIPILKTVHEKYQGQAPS
Description: as §1, §2, §3, §4

JAK1-JH1JH2, sequence (P23458 574-1154): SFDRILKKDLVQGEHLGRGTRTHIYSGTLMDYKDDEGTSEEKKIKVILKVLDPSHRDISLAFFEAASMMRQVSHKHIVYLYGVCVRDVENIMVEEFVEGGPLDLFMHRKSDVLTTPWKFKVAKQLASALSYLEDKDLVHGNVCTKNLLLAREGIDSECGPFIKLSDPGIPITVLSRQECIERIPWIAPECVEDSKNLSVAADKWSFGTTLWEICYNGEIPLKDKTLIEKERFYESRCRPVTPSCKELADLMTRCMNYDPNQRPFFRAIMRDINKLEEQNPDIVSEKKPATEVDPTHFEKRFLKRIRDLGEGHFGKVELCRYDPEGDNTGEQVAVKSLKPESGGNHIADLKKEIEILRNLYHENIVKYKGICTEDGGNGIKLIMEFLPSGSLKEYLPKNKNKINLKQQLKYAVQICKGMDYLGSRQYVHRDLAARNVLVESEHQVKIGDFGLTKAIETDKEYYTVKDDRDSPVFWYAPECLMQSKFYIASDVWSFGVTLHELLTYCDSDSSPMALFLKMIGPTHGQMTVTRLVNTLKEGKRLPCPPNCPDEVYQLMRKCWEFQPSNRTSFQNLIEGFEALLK

In the case of `N#CCC12CCC(n3c(CC(N)=O)nc4cnc5[nH]ccc5c43)(CC1)CC2` [Ex. 206, 2-(1-(4-(Cyanomethyl)bicyclo[2.2.2]octan-1-yl)-1,6-dihydroimidazo[4,5-d]pyrrolo[2,3-b]pyridin-2-yl)acetamide], the IC50 (JAK1-JH1JH2) is reported as 5.6 nM, the IC50 (JAK2-JH1JH2) is reported as 210 nM and the IC50 (JAK3-JH1JH2) is reported as 881 nM. For the same compound, the IC50 (Tyk2-JH1JH2) was 158 nM.

Compound `N#CC[C@H]1CC[C@H](n2c(Cc3cscn3)nc3cnc4[nH]ccc4c32)CC1` [Ex. 41, 2-((1r,4r)-4-(2-(Thiazol-4-ylmethyl)imidazo[4,5-d]pyrrolo[2,3-b]pyridin-1(6H)-yl)cyclohexyl)acetonitrile] has an IC50 (JAK1-JH1JH2) of under 0.2 nM, an IC50 (JAK2-JH1JH2) of 0.4 nM and an IC50 (JAK3-JH1JH2) of 19.9 nM. The IC50 (Tyk2-JH1JH2) was 0.6 nM.

With `N#CC[C@H]1CC[C@H](n2c(CC(=O)NCc3ccc(C#N)cc3)nc3cnc4[nH]ccc4c32)CC1` [Ex. 39, N-(4-Cyanobenzyl)-2-(1-((1r,4r)-4-(cyanomethyl)cyclohexyl)-1,6-dihydroimidazo[4,5-d]pyrrolo[2,3-b]pyridin-2-yl)acetamide] the IC50 (JAK1-JH1JH2) was 0.2 nM, the IC50 (JAK2-JH1JH2) was 5.3 nM and the IC50 (JAK3-JH1JH2) was 142 nM. It also gave an IC50 (Tyk2-JH1JH2) of 10 nM.

With `COCCOCCOCc1nc2cnc3[nH]ccc3c2n1[C@H]1CC[C@H](CC#N)CC1` [Ex. 194, 2-((1r,4r)-4-(2-((2-(2-methoxyethoxy)ethoxy)methyl)imidazo[4,5-d]pyrrolo[2,3-b]pyridin-1(6H)-yl)cyclohexyl)acetonitrile] the IC50 (JAK1-JH1JH2) was 9.4 nM, the IC50 (JAK2-JH1JH2) was 133 nM and the IC50 (JAK3-JH1JH2) was 1460 nM. It also gave an IC50 (Tyk2-JH1JH2) of 72.5 nM.

Compound `CS(C)(=O)=NCc1nc2cnc3[nH]ccc3c2n1[C@H]1CC[C@H](CC#N)CC1` [Ex. 142, 2-((1r,4r)-4-(2-(((Dimethyl(oxo)-λ^6-sulfanylidene)amino)methyl)imidazo[4,5-d]pyrrolo[2,3-b]pyridin-1(6H)-yl)cyclohexyl)acetonitrile] has an IC50 (JAK1-JH1JH2) of 0.9 nM, an IC50 (JAK2-JH1JH2) of 10 nM and an IC50 (JAK3-JH1JH2) of 383 nM. For the same compound, the IC50 (Tyk2-JH1JH2) was 6.9 nM.

`CC(C)(C)C/C(=N/O)NCc1nc2cnc3[nH]ccc3c2n1[C@H]1CC[C@H](CC#N)CC1` [Ex. 101] gave an IC50 (JAK1-JH1JH2) of 0.5 nM, an IC50 (JAK2-JH1JH2) of 29.7 nM and an IC50 (JAK3-JH1JH2) of 182 nM. It also gave an IC50 (Tyk2-JH1JH2) of 6.7 nM.

In the case of `N#CC[C@H]1CC[C@H](n2c(CC(=O)NC34CCC(C(N)=O)(CC3)CC4)nc3cnc4[nH]ccc4c32)CC1` [Ex. 58, 4-(2-(1-((1r,4r)-4-(Cyanomethyl)cyclohexyl)-1,6-dihydroimidazo[4,5-d]pyrrolo[2,3-b]pyridin-2-yl)acetamido)bicyclo[2.2.2]octane-1-carboxamide], the IC50 (JAK1-JH1JH2) is reported as 0.3 nM, the IC50 (JAK2-JH1JH2) is reported as 1.4 nM and the IC50 (JAK3-JH1JH2) is reported as 31.4 nM. It also gave an IC50 (Tyk2-JH1JH2) of 3.3 nM.

Work on `CC(C)(C)OC(=O)NCc1nc2cnc3[nH]ccc3c2n1[C@H]1CC[C@H](CC#N)CC1` [Ex. 158, tert-Butyl ((1-((1r,4r)-4-(Cyanomethyl)cyclohexyl)-1,6-dihydroimidazo[4,5-d]pyrrolo[2,3-b]pyridin-2-yl)methyl)carbamate] yielded an IC50 (JAK1-JH1JH2) of 1.4 nM, an IC50 (JAK2-JH1JH2) of 77.9 nM and an IC50 (JAK3-JH1JH2) of 630 nM. The IC50 (Tyk2-JH1JH2) was 59.5 nM.

Compound `N#CC[C@H]1CC[C@H](n2c(CC(=O)N3CCC(O)CC3)nc3cnc4[nH]ccc4c32)CC1` [Ex. 12, 2-((1r,4r)-4-(2-(2-(4-Hydroxypiperidin-1-yl)-2-oxoethyl)imidazo[4,5-d]pyrrolo[2,3-b]pyridin-1(6H)-yl)cyclohexyl)acetonitrile] has an IC50 (JAK1-JH1JH2) of 0.1 nM, an IC50 (JAK2-JH1JH2) of 9.2 nM and an IC50 (JAK3-JH1JH2) of 99.4 nM. The IC50 (Tyk2-JH1JH2) was 1.4 nM.

In the case of `N#CC[C@H]1CC[C@H](n2c(CC(=O)NC34CC5CC(CC(C5)C3)C4)nc3cnc4[nH]ccc4c32)CC1` [Ex. 32, N-((3R,5R)-Adamantan-1-yl)-2-(1-((1r,4r)-4-(cyanomethyl)cyclohexyl)-1,6-dihydroimidazo[4,5-d]pyrrolo[2,3-b]pyridin-2-yl)acetamide], the IC50 (JAK1-JH1JH2) is reported as 0.2 nM, the IC50 (JAK2-JH1JH2) is reported as 1.3 nM and the IC50 (JAK3-JH1JH2) is reported as 59.3 nM. For the same compound, the IC50 (Tyk2-JH1JH2) was 2.8 nM.

`CC(C)(C)CNC(=O)Cc1nc2cnc3[nH]ccc3c2n1[C@H]1CC[C@H](CC#N)CC1` [Ex. 44, 2-(1-((1r,4r)-4-(Cyanomethyl)cyclohexyl)-1,6-dihydroimidazo[4,5-d]pyrrolo[2,3-b]pyridin-2-yl)-N-neopentylacetamide] gave an IC50 (JAK1-JH1JH2) of 0.2 nM, an IC50 (JAK2-JH1JH2) of 5.4 nM and an IC50 (JAK3-JH1JH2) of 52.3 nM. The IC50 (Tyk2-JH1JH2) was 6 nM.

In the case of `N#CC[C@H]1CC[C@H](n2c(-c3cc[nH]n3)nc3cnc4[nH]ccc4c32)CC1` [Ex. 60, 2-((1r,4r)-4-(2-(1H-Pyrazol-3-yl)imidazo[4,5-d]pyrrolo[2,3-b]pyridin-1(6H)-yl)cyclohexyl)acetonitrile], the IC50 (JAK1-JH1JH2) is reported as 0.3 nM, the IC50 (JAK2-JH1JH2) is reported as 1.7 nM and the IC50 (JAK3-JH1JH2) is reported as 72 nM. The IC50 (Tyk2-JH1JH2) was 3.4 nM.

Work on `CCOP(=O)(Cc1ccc(NC(=O)Cc2nc3cnc4[nH]ccc4c3n2[C@H]2CC[C@H](CC#N)CC2)cc1)OCC` [Ex. 108, Diethyl 4-(2-(1-((1r,4r)-4-(cyanomethyl)cyclohexyl)-1,6-dihydroimidazo[4,5-d]pyrrolo[2,3-b]pyridin-2-yl)acetamido)benzylphosphonate] yielded an IC50 (JAK1-JH1JH2) of 0.6 nM, an IC50 (JAK2-JH1JH2) of 3.8 nM and an IC50 (Tyk2-JH1JH2) of 7.1 nM.

Compound `C[Si](C)(C)[C@H]1CC[C@H](NC(=O)Cc2nc3cnc4[nH]ccc4c3n2[C@H]2CC[C@H](CC#N)CC2)CC1` [Ex. 167, 2-(1-((1r,4r)-4-(Cyanomethyl)cyclohexyl)-1,6-dihydroimidazo[4,5-d]pyrrolo[2,3-b]pyridin-2-yl)-N-((1r,4r)-4-(trimethylsilyl)cyclohexyl)acetamide] has an IC50 (JAK1-JH1JH2) of 1.9 nM, an IC50 (JAK2-JH1JH2) of 20.8 nM and an IC50 (Tyk2-JH1JH2) of 25.5 nM.

Compound `C[Si](C)(C)[C@H]1CC[C@@H](NC(=O)Cc2nc3cnc4[nH]ccc4c3n2[C@H]2CC[C@H](CC#N)CC2)CC1` [Ex. 135, 2-(1-((1r,4r)-4-(Cyanomethyl)cyclohexyl)-1,6-dihydroimidazo[4,5-d]pyrrolo[2,3-b]pyridin-2-yl)-N-((1S,4S)-4-(trimethylsilyl)cyclohexyl)acetamide] has an IC50 (JAK1-JH1JH2) of 0.8 nM, an IC50 (JAK2-JH1JH2) of 4 nM and an IC50 (Tyk2-JH1JH2) of 8.7 nM.

With `N#CC[C@H]1CC[C@H](n2c(C(=O)N3CCC(O)(c4ccccn4)CC3)nc3cnc4[nH]ccc4c32)CC1` [Ex. 88, 2-((1r,4r)-4-(2-(4-Hydroxy-4-(pyridin-2-yl)piperidine-1-carbonyl)imidazo[4,5-d]pyrrolo[2,3-b]pyridin-1(6H)-yl)cyclohexyl)acetonitrile] the IC50 (JAK1-JH1JH2) was 0.4 nM, the IC50 (JAK2-JH1JH2) was 43.4 nM and the IC50 (Tyk2-JH1JH2) was 49.5 nM.

`CC(C)(O)CNC(=O)c1nc2cnc3[nH]ccc3c2n1[C@H]1CC[C@H](CC#N)CC1` [Ex. 117, 1-((1r,4r)-4-(Cyanomethyl)cyclohexyl)-N-(2-hydroxy-2-methylpropyl)-1,6-dihydroimidazo[4,5-d]pyrrolo[2,3-b]pyridine-2-carboxamide] gave an IC50 (JAK1-JH1JH2) of 0.6 nM, an IC50 (JAK3-JH1JH2) of 273 nM and an IC50 (Tyk2-JH1JH2) of 17.3 nM.
